“And” between values parts separate entries of the source, which are not always exact repeats. Equal entries are not always repeated. Where two headings read alike, the source gives them in different places. Some results are limits rather than exact numbers.

Data on 14 molecules can be found in article PMC8594108, “In vitro growth inhibitory activity of Medicines for Malaria Venture pathogen box compounds against Leishmania aethiopica” (BMC Pharmacology & Toxicology, 2021).

The subject of data set [1] is intracellular L. aethiopica amastigotes. Nature of the data set: Intracellular amastigote assay in mouse peritoneal macrophages. The class given is cell-based, Leishmania aethiopica. Conditions: for IC50 / inhibition at 1 µM: Leishmania aethiopica, Peritoneal macrophage, 72 h; for IC50: mouse peritoneal macrophages, read-out: IC50 against intracellular L. aethiopica amastigotes; for inhibition at 1 µM: read-out: percentage of inhibition of intracellular amastigotes. As to the method: Intracellular amastigote assay was conducted according to the method described elsewhere with modifications. Approximately 3 × 10^5 peritoneal macrophages were seeded in 24-well plates and allowed to adhere for 12 h at 33 °C in 5% CO2. Adherent cells were infected with late-stage L. aethiopica promastigotes (1:10 ratio) after washing out non-adherent cells twice. Only when > 70% of the macrophages present in the wells were infected was the infection deemed sufficient. The medium was then replaced with a fresh complete medium with or without test compounds and incubated for 72 h at 33 °C and 5% CO2. After 72 h of incubation, slides were washed with prewarmed PBS, fixed with methanol, and stained with Giemsa (10%) for 15 min and observed under 100x oil immersion objective microscope [Olympus]. Amphotericin B and pentamidine were used as reference drugs against test samples.
The IC50 was determined by counting amastigotes in (50) macrophages in duplicate cultures. In all assays except for haemolytic and THP- 1, test compounds were diluted in a two-fold dose-titration range (0.03 to 1 μM) in triplicate. Parasite burden was calculated using the infection index as shown below. Infection index=Number of infected macrophages/Total macrophage countedxTotal number of amastigotes in infected macrophages/Total infected macrophages counted

For data set [2], the system named is L. aethiopica promastigotes. Nature of the data set: Primary antipromastigote assay (resazurin based). The class given is cell-based. Conditions: Leishmania aethiopica, 72 h; for IC50: dose titration 0.03 to 1 μM, average of two independent experiments in triplicate, read-out: IC50 (95% CI) against Leishmania aethiopica promastigotes. As to the method: Test compounds were diluted in 96-well microculture plate containing 100 μL complete M199 medium. […] The Parasite density was kept constant at 1 × 10^5 per well. After 68 h of incubation, 10 μL of fluorochrome resazurin solution (Sigma-Aldrich, Co., St. […] The percentage of inhibition (%) was calculated for each concentration using the following formula: Inhibition%=100−Fluorescence in duplicate drug wells-Fluorescence in blank wells/Fluorescence control wells−Fluorescence in blank wells∗100
On the technique in general: Resazurin is reduced to fluorescent resorufin, in cell work by metabolically active cells.

For data set [3] the following is noted: ref NCBI PubChem [29]-[39]; cited from earlier work.
A short description of data set [4]: Haemolysis test. Type of data set: cell-based, sheep. Conditions: sheep. The method, then: (§1) The mixture was then centrifuged at 1000 g for 10 min. 75 μL of the resulting supernatant were transferred to 96-well plates and the absorbance readings obtained at 540 nm using Victor3 Multilabel Counter (PerkinElmer, Waltham, USA).
Data set [5] can be described thus: THP-1 cell cytotoxicity assay (resazurin). The class given is cell-based. As to conditions: human. The method, then:
(§2) Approximately 2 × 10^5 THP-1 cell suspension were added to 96-well microplate containing serially diluted 50 μL test compounds. Microplates were then incubated for 68 h at 37 °C in a 5% CO2 air mixture. Cell viability was determined with the resazurin- based fluorescence assay measured after a total incubation time of 72 h. The estimated median cell cytotoxicity (CC50) was calculated for each concentration using the formula: Cell viability%=Fluorescence in duplicate drug wells-Fluorescence blank wells/Fluorescence in control wells−Fluorescence blank wells∗100 The selectivity index of compounds was calculated from the ratio of the CC50 value determined in THP1 cells to the IC50 value determined from the dose-response curves in promastigote and amastigote assay using the following formula. Selectivity indexSI=CC50THP1cells/IC50promastigotes or amstigotes

Data set [6] concerns sheep red blood cells (RBCs). Nature of the data set: Haemolysis test. The class given is cell-based. As to conditions: at 25 μM. The method, then:
as §1

The subject of data set [7] is THP-1 cells. Nature of the data set: THP-1 cell cytotoxicity assay (resazurin). Type of data set: cell-based. The method, then:
as §2

Data set [8] relates to L. infantum. Details: method as in MMV biological data. Conditions: ref MMV biological data; cited from earlier work.
Data set [9] has as its system PMM cells. Details: method as in MMV (MMV PB website). Conditions: ref MMV (MMV PB website); read-out: IC50 against PMM cells; cited from earlier work.
Data set [10] relates to MRC-5 cells. Also on record: method as in MMV (MMV PB website). As to conditions: ref MMV (MMV PB website); read-out: IC50 against MRC-5 cells; cited from earlier work.
Setting [11] is: hit map sheet with colour categories, negative values shown as 0.00, read-out: Percentage of inhibition against Leishmania aethiopica promastigotes.
The mark [12] stands for this setting: hit map sheet without colour categories, negative values kept, read-out: Percentage of inhibition against Leishmania aethiopica promastigotes.
Setting [13] is: sheep red blood cells (2% blood suspension), 1.56–25 μM, 2 h, 37 °C, read-out: Cytotoxicity, CC50, Sheep RBC.
The mark [14] stands for this setting: THP-1 cells, 72 h, read-out: Cytotoxicity, CC50, THP-1.

Consider `C[C@@H]1[C@H](O)[C@@H](C)/C=C/C=C/C=C/C=C/C=C/C=C/C=C/[C@H](O[C@@H]2O[C@H](C)[C@@H](O)[C@H](N)[C@@H]2O)C[C@@H]2O[C@](O)(C[C@@H](O)C[C@@H](O)[C@H](O)CC[C@@H](O)C[C@@H](O)CC(=O)O[C@H]1C)C[C@H](O)[C@H]2C(=O)O` [Amphotericin B, reference compound], for which, in data set [1], the IC50 was found to be 277 ± 7.9 nM. The inhibition at 1 µM in data set [2] (setting [11]) and in data set [2] (setting [12]) was 63% in each case.
For `CN1CCC(NCc2cccc(-c3ccc(S(=O)(=O)NCc4ccccc4)cc3)c2)CC1` [MMV022029], in data set [3], the “R3 H+ bond receiver” value was 5 and the “R6 Polar surface area” value was 69.8 A^2. Also, in [4] (setting [13]), the CC50 at 2 h is above 25000 nM. The “activities against the intracellular amastigotes (in words)” value in data set [1] is given as “low”. Moreover, in [2] (setting [11]), the inhibition at 1 µM turned out to be 88%. The inhibition at 1 µM in [2] (setting [12]) was 88%. The IC50 in data set [2] turned out to be 305 nM. For the same molecule, the half-maximal cytotoxic concentration (CC50) at 72 h in data set [5] (setting [14]) was above 25000 nM.
With `O=C(Nc1ccc(N2CCNCC2)cc1)c1ccn2ncc(-c3cccc(Cl)c3)c2n1` [MMV022478], in data set [3], the “R3 H+ bond receiver” value is given as 5. Moreover, the “R6 Polar surface area” value in [3] was 74.6 A^2. Also, the CC50 at 2 h in data set [4] (setting [13]) is above 25000 nM. In addition, the IC50 in data set [1] is 435 ± 49.2 nM; in data set [2], 448 nM. For the same molecule, the results for the inhibition at 1 µM in [1], in data set [2] (setting [11]) and in data set [2] (setting [12]) were 72.4 ± 5.6%, 98.9% and 98.9%, respectively. Moreover, in data set [5] (setting [14]), the CC50 at 72 h is above 25000 nM.
For the molecule `O=C(Nc1cccc(Cl)c1)c1cnc(N2CCN(c3ccncc3)CC2)c(Cl)c1` [MMV024406], the “R3 H+ bond receiver” value in [3] is recorded as 5. Also, the “R6 Polar surface area” value in data set [3] was 61.4 A^2. In addition, the CC50 at 2 h in [4] (setting [13]) was above 25000 nM. The “activities against the intracellular amastigotes (in words)” value in [1] was “low”. The IC50 worked out at 900 ± 65.9 nM in data set [1] and 24 nM in data set [2]. Moreover, the inhibition at 1 µM worked out at 55.6 ± 5.5% in [1], 97.3% in [2] (setting [11]) and 97.3% in data set [2] (setting [12]). Further, the CC50 at 72 h in data set [5] (setting [14]) was above 25000 nM.
Turning to `Cc1cccc(C(=O)Nc2ccnc(N(C)C3CCN(CC(C)C)CC3)c2)c1` [MMV024829], in [3], the “R3 H+ bond receiver” value is listed as 4. Also, the CC50 at 2 h in [4] was above 25000 nM. In addition, the IC50 was determined as 411 ± 56.6 nM in data set [1] and 356 nM in data set [2]. Also, the inhibition at 1 µM in data set [1] stood at 69.6 ± 4.1%; in [2] (setting [11]) it was 82.4%; in data set [2] (setting [12]) it was 82.4%. The CC50 at 72 h in [5] was above 25000 nM.
With `COc1cncc(-c2cncc(N3CCN(c4ccncc4)CC3)n2)c1` [MMV085071], in [3], the “R3 H+ bond receiver” value is reported as 7. The “R6 Polar surface area” value in data set [3] is on record as 67.3 A^2. In data set [4] (setting [13]), the CC50 at 2 h is above 25000 nM. For the same molecule, the IC50 in data set [1] stood at 277 ± 37.2 nM; in [2] it was 283 nM. Also, the inhibition at 1 µM in [1] came to 80.5 ± 4.2%; in data set [2] (setting [11]), 76.1%; in data set [2] (setting [12]) it was 76.1%. Also, in [5] (setting [14]), the CC50 at 72 h is above 25000 nM.
On to `CN1CCCC1CCO[C@](C)(c1ccccc1)c1ccc(Cl)cc1` (stereo partly drawn) [MMV637229], for which, in [3], the “R3 H+ bond receiver” value is 2.
As for `Clc1cccc(C(c2ccc(CN3CCNCC3)cc2)n2ccnc2)c1` (stereo not drawn) [MMV663250], in data set [3], the “R3 H+ bond receiver” value is 3 and the “R6 Polar surface area” value is given as 33.1 A^2. The CC50 at 2 h in data set [4] (setting [13]) was above 25000 nM. In [2] (setting [11]), the inhibition at 1 µM came out at 81%. Further, the inhibition at 1 µM in data set [2] (setting [12]) turned out to be 81%. The IC50 in data set [2] is 326 nM. The CC50 at 72 h in [5] (setting [14]) was above 25000 nM.
With `CN1CCN(CCCOc2ncc(Nc3ncc(-c4ccc(C(F)(F)F)c(F)c4)nc3C(N)=O)cn2)CC1` [MMV687812], in data set [3], the “R3 H+ bond receiver” value is given as 13 and the “R6 Polar surface area” value is 122 A^2. In addition, the CC50 at 2 h in data set [4] (setting [13]) was above 25000 nM. For the same molecule, the inhibition at 1 µM in data set [2] (setting [11]) is 72.9%. In data set [2] (setting [12]), the inhibition at 1 µM turned out to be 72.9%. The IC50 in [2] was 390 nM. The CC50 at 72 h in [5] (setting [14]) was above 25000 nM.
With `N=C(N)Nc1ccc(-c2ccc(-c3ccc(NC(=N)N)cc3Cl)o2)c(Cl)c1` [MMV688179, 2,5-Bis (2-chloro-4-guanidinophenyl) furan], in data set [3], the “R3 H+ bond receiver” value is recorded as 3 and the “R6 Polar surface area” value is 142 A^2. The 50% cytotoxic concentration (CC50) at 2 h in data set [4] (setting [13]) is above 25000 nM. Besides, the inhibition at 1 µM in data set [2] (setting [11]) was 80.6%. The inhibition at 1 µM in data set [2] (setting [12]) was determined as 80.6%. Moreover, the IC50 in data set [2] is 356 nM. Moreover, the CC50 at 72 h in data set [5] (setting [14]) is above 25000 nM.
As to `CO[C@@H]1CN(c2ccc(C#CC3(O)CN4CCC3CC4)c(Cc3ccccc3)n2)C[C@H]1O` (stereo partly drawn) [MMV688415], the “R3 H+ bond receiver” value in data set [3] is 6. The CC50 at 2 h in data set [4] (setting [13]) is above 25000 nM. Also, in data set [6], the “hemolytic activity on sheep RBC” value came out at 5.3%. Further, the IC50 in data set [1] is 374 ± 45.4 nM; in [2], 145 nM. The inhibition at 1 µM was found to be 68.6 ± 6.6% in data set [1] and 98.7% in data set [2] (setting [11]). Moreover, the “CC20 on THP-1 cell line” value in data set [7] (72 h) is 25000 nM. The CC50 at 72 h in data set [5] (setting [14]) is above 25000 nM.
For `COc1ccc(Oc2ccc([C@@H](C)N(C)c3ncc4c(N)nc(N)nc4n3)cc2)cc1` [MMV690102], the “R3 H+ bond receiver” value in [3] was 9. Further, the “R6 Polar surface area” value in data set [3] is given as 125 A^2. For the same molecule, the CC50 at 2 h in data set [4] (setting [13]) was above 25000 nM. Besides, the 50% inhibitory concentration (IC50) is 76 ± 18.1 nM in [1]; 158 nM in [2]; 3 nM in data set [8]; 4000 nM in data set [9]; 5400 nM in [10]. For the same molecule, the results for the inhibition at 1 µM in data set [1] and in [2] (setting [11]) were 90.7 ± 5.3% and 95%, respectively. For the same molecule, the “Cytotoxicity, CC50 (extrapolated IC50), THP-1” value in data set [7] (72 h, extrapolated result) is 36500 nM and 36550 nM and 36000 nM. In addition, in data set [7] (CC50 THP-1 cells / IC50 promastigotes or amastigotes), the “Selectivity index (SI)” value is given as 478.4.
Regarding `CCCCCCCCCCCCCCCCOP(=O)([O-])OCC[N+](C)(C)C` [Miltefosine, reference compound], the inhibition at 1 µM in data set [2] (setting [11]) and in [2] (setting [12]) was 35.3% in each case.
In the case of `N=C(N)c1ccc(OCCCCCOc2ccc(C(=N)N)cc2)cc1` [Pentamidine, reference compound], the values for the IC50 in [1] and in [2] were 1600 ± 90 nM and 1310 nM, respectively. In addition, the inhibition at 1 µM in [2] (setting [11]) and in data set [2] (setting [12]) was 64.7% in each case.

Usually IC50 stands for the concentration that inhibits the measured activity by half. In general, inhibition refers to the relative decrease from the control value, in per cent. By CC50 is commonly meant the concentration that lowers cell viability or growth by half.
